Source: EPA's ToxValDB 9.5 (doi:10.2903/j.efsa.2010.1871)
Values after ≈ are worked out from the molar mass of the structure shown.

Key:
Apis mellifera = conditions: acute; duration: 48 hours; dermal; mortality
Bibionidae = conditions: chronic/long-term; duration: 28 days; other
Canidae = conditions: oral, Dog Other, hematological
Daphnia magna = conditions: chronic/long-term, duration: 21 days
Lepomis macrochirus = conditions: acute; duration: 96 hours; mortality
Macromiidae = conditions: acute; duration: 96 hours; growth
Mus musculus = conditions: acute; oral; mortality
Pimephales promelas = conditions: chronic/long-term; duration: 35 days; growth
Tagia sp. = conditions: acute; duration: 14 days; mortality
Adalia sp. = assay: LR50; higher = less toxic; conditions: chronic/long-term; duration: 21 days; mortality
[1] = reproduction developmental, reproduction

Compound `CCc1ccc(C(=O)NN(C(=O)c2cc(C)cc(C)c2)C(C)(C)C)cc1` [Tebufenozide] has an LD50 (Apis mellifera) greater than 234 µg/piece, an NOEC (Bibionidae) of 0.0057 mg/L and an NOAEL (Canidae; chronic, duration: 52 weeks) of 2 mg/kg-day. The NOAEL (Canidae; subchronic, duration: 90 days) was 2 mg/kg-day, the LC50 (Colinus virginianus; acute, oral, diet, mortality) was greater than 814 mg/kg and the LD50 (Colinus virginianus; acute, oral, mortality) was greater than 2150 mg/kg. For the same compound, the NOAEL (Colinus virginianus; [1]) was 48 mg/kg-day, the NOEC (Daphnia magna; growth) was 0.029 mg/L and the NOEC (Daphnia magna; reproduction) was 0.0078 mg/L. For the same compound, the LC50 (Lepomis macrochirus) was 3 µg/mL (≈ 8.51 µM), the NOEC (Macromiidae) was 0.046 mg/L and the LD50 (Mus musculus) was greater than 5000 mg/kg. It also gave an NOEC (Pimephales promelas) of 0.71 mg/L, an LD50 (Rattus norvegicus; acute, oral, mortality) greater than 5000 mg/kg and an NOAEL (Rattus norvegicus; [1]) of 15 mg/kg-day. The LC50 (Tagia sp.) was greater than 1000 mg/kg, the NOEC (Tagia sp.) was no less than 1000 mg/kg and the LR50 (Adalia sp.) was greater than 128 g/ha.
